Results reported in US20120277165A1, “METHODS OF MODULATING FUCOSYLATION OF GLYCOPROTEINS” (priority 2009, published 2012).

Experiments:
[1] = system: Lec 13.6 A cells (CHO cells deficient in GDP-mannose 4,6, dehydratase) expressing CTLA4Ig; experiment: Degree of core fucosylation of glycans on secreted CTLA4Ig (PNGase F, MALDI mass spectrometry); type: cell-based, Chinese hamster; settings: CTLA4Ig from Lec 13.6A cells
Method: (§1) The levels of GDP-fucose levels and the degree of protein fucosylation on glycoproteins were analyzed for three different CHO cell lines expressing a representative secreted protein product (CTLA4Ig): CHO cells that are deficient in the enzyme GDP-mannose 4,6, dehydratase (Lec 13.6 A); CHO cells that have lowered levels of GDP-fucose (Lec 2); and wild-type CHO cells. […] Cells were harvested, and snap frozen, while culture supernatant was harvested and CTLA4Ig harvested by protein A purification for subsequent analysis. Cells were then subjected to nucleotide sugar extraction using standard methods. In short with chloroform:methanol:water (2:4:1), the pellets discarded and the resulting extraction dried down. The dried material was subsequently resuspended in 500 ul of 10% butanol in water and then extracted with 1 ml of 90% butanol in water. […] For quantification, sugar-nucletides were resolved with RP chromatography.
(§2) Protein products were isolated from culture supernatant by protein A affinity, and subjected to PNGase F treatment to remove glycans. The resulting glycans were isolated by PGC chromatography and subsequently analyzed by MALDI mass spectrometry. The % fucosylation was determined by determining the ratio of the glycans with or without core fucosylation. GDP-fucose levels are indicated in peak area as detected by UV.

[2] = system: Lec 13.6 A cells (CHO cells deficient in GDP-mannose 4,6, dehydratase) expressing CTLA4Ig; experiment: GDP-fucose levels in CHO cells (nucleotide sugar extraction, RP chromatography, UV); type: cell-based, Chinese hamster; settings: relative to wild-type CHO = 100
Method: as §1, §2

[3] = 0.01 mM exogenous fucose in culture media
[4] = 1 mM exogenous fucose in culture media

C[C@H](O)[C@@H](O)[C@@H](O)[C@H](O)C=O [fucose]
% Fucosylated Glycans [1, 3]: 45%
% Fucosylated Glycans [1, 4]: 100%
% of Parental GDP-fucose [2, 3]: 62.5%
% of Parental GDP-fucose [2, 4]: 270%
